Data as given in US9302999B2, “Substituted triazoles as herbicides” (E. I. DU PONT DE NEMOURS AND COMPANY, priority 2012, dated 2016).

What was measured:
Type in all cases: in vivo
[1] = test system: barnyardgrass (Echinochloa crus-galli); test: Test C flooded paddy test: barnyardgrass; conditions: scale 0 to 100 (0 no effect, 100 complete control)
Summary of the method: (§1)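 2-leaf stage plants; pots flooded 3 cm above soil; compound applied into paddy water, depth maintained. Greenhouse 13–15 d. Visual rating vs controls, 0–100 (0 = no effect, 100 = complete control); dash = no result.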

[2] = test system: foxtail, giant (giant foxtail, Setaria faberii); test: Test A pre-/postemergence: foxtail, giant; conditions: for Foxtail, Giant plant response rating: Postemergence; for Plant response rating, Foxtail, Giant: Preemergence
Summary of the method: (§2)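 Plants in loam–sand blend were treated with test chemicals in non-phytotoxic solvent with surfactant, either as preemergence directed soil spray or postemergence at 2–10 cm, one- to two-leaf stage. After about ten days in greenhouse, injury was rated visually against untreated controls on a 0–100 scale (100 = complete control).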

corn (Zea mays) = test: Test A pre-/postemergence: corn; conditions: for Corn plant response rating: Postemergence; for Plant response rating, Corn: Preemergence
Summary of the method: as §2

[3] = test system: sedge, umbrella (small-flower umbrella sedge, Cyperus difformis); test: Test C flooded paddy test: sedge, umbrella; conditions: scale 0 to 100 (0 no effect, 100 complete control)
Summary of the method: as §1

[4] = test system: velvetleaf (Abutilon theophrasti); test: Test A pre-/postemergence: velvetleaf; conditions: for Velvetleaf plant response rating: Postemergence; for Plant response rating, Velvetleaf: Preemergence
Summary of the method: as §2

[5] = test system: barnyardgrass (Echinochloa crus-galli); test: Test A pre-/postemergence: barnyardgrass; conditions: for Barnyardgrass plant response rating: Postemergence; for Plant response rating, Barnyardgrass: Preemergence
Summary of the method: as §2

rice (Oryza sativa) = test: Test C flooded paddy test: rice; conditions: scale 0 to 100 (0 no effect, 100 complete control)
Summary of the method: as §1

[6] = test system: pigweed (Amaranthus retroflexus); test: Test A pre-/postemergence: pigweed; conditions: for Pigweed plant response rating: Postemergence; for Plant response rating, Pigweed: Preemergence
Summary of the method: as §2

[7] = test system: crabgrass, large (large crabgrass, Digitaria sanguinalis); test: Test A pre-/postemergence: crabgrass, large; conditions: for Crabgrass, Large plant response rating: Postemergence; for Plant response rating, Crabgrass, Large: Preemergence
Summary of the method: as §2

[8] = test system: ducksalad (Heteranthera limosa); test: Test C flooded paddy test: ducksalad; conditions: scale 0 to 100 (0 no effect, 100 complete control)
Summary of the method: as §1

[9] = test system: wheat (Triticum aestivum); test: Test A pre-/postemergence: wheat; conditions: for Wheat plant response rating: Postemergence; for Plant response rating, Wheat: Preemergence
Summary of the method: as §2

[10] = test system: morningglory (Ipomoea spp.); test: Test A pre-/postemergence: morningglory; conditions: for Morningglory plant response rating: Postemergence; for Plant response rating, Morningglory: Preemergence
Summary of the method: as §2

[11] = Flood (flooded paddy test), 125 g ai/ha, visual rating after 13 to 15 days
[12] = Flood (flooded paddy test), 250 g ai/ha, visual rating after 13 to 15 days
[13] = 125 g ai/ha, 0 to 100 scale, 0 is no effect, 100 is complete control
[14] = 500 g ai/ha, visual rating on 0 to 100 scale (0 no effect, 100 complete control), approximately ten days
[15] = 125 g ai/ha, 0 to 100 scale (0 no effect, 100 complete control)
[16] = 500 g ai/ha, 0 to 100 scale, 0 is no effect, 100 is complete control
[17] = Flood (flooded paddy test), 62 g ai/ha, visual rating after 13 to 15 days

## Cc1nn(-c2ccc(C(F)(F)F)cc2)nc1Oc1ccnc(OCC(F)(F)F)c1 [Compound 77]
[1]; [11]
  Plant response rating, Barnyardgrass: 0
[1]; [12]
  Plant response rating, Barnyardgrass: 0
[1]; Flood, 31 g ai/ha
  Plant response rating, Barnyardgrass: 0
[1]; Flood, 62 g ai/ha
  Plant response rating, Barnyardgrass: 0
[2]; [13]
  Foxtail, Giant plant response rating: 10
[2]; [14]
  Foxtail, Giant plant response rating: 20
[2]; [15]
  Plant response rating, Foxtail, Giant: 0
[2]; [16]
  Plant response rating, Foxtail, Giant: 10
Corn (Zea mays); [13]
  Corn plant response rating: 0
Corn (Zea mays); [14]
  Corn plant response rating: 10
Corn (Zea mays); [15]
  Plant response rating, Corn: 0
Corn (Zea mays); [16]
  Plant response rating, Corn: 0
[3]; [11]
  Plant response rating, Sedge, Umbrella: 0
[3]; [12]
  Plant response rating, Sedge, Umbrella: 0
[3]; Flood, 31 g ai/ha
  Plant response rating, Sedge, Umbrella: 0
[3]; Flood, 62 g ai/ha
  Plant response rating, Sedge, Umbrella: 0
[4]; [13]
  Velvetleaf plant response rating: 10
[4]; [14]
  Velvetleaf plant response rating: 10
[4]; [15]
  Plant response rating, Velvetleaf: 0
[4]; [16]
  Plant response rating, Velvetleaf: 0
[5]; [13]
  Barnyardgrass plant response rating: 0
[5]; [14]
  Barnyardgrass plant response rating: 10
[5]; [15]
  Plant response rating, Barnyardgrass: 0
[5]; [16]
  Plant response rating, Barnyardgrass: 0
Rice (Oryza sativa); [11]
  Plant response rating, Rice: 0
Rice (Oryza sativa); [12]
  Plant response rating, Rice: 0
Rice (Oryza sativa); Flood, 31 g ai/ha
  Plant response rating, Rice: 0
Rice (Oryza sativa); Flood, 62 g ai/ha
  Plant response rating, Rice: 0
[6]; [13]
  Pigweed plant response rating: 90
[6]; [14]
  Pigweed plant response rating: 100
[6]; [15]
  Plant response rating, Pigweed: 0
[6]; [16]
  Plant response rating, Pigweed: 10
[7]; [13]
  Crabgrass, Large plant response rating: 10
[7]; [14]
  Crabgrass, Large plant response rating: 20
[7]; [15]
  Plant response rating, Crabgrass, Large: 0
[7]; [16]
  Plant response rating, Crabgrass, Large: 10
[8]; [11]
  Plant response rating, Ducksalad: 0
[8]; [12]
  Plant response rating, Ducksalad: 0
[8]; Flood, 31 g ai/ha
  Plant response rating, Ducksalad: 0
[8]; Flood, 62 g ai/ha
  Plant response rating, Ducksalad: 0
[9]; [13]
  Wheat plant response rating: 0
[9]; [14]
  Wheat plant response rating: 0
[9]; [15]
  Plant response rating, Wheat: 0
[9]; [16]
  Plant response rating, Wheat: 0
[10]; [13]
  Morningglory plant response rating: 10
[10]; [14]
  Morningglory plant response rating: 10
[10]; [15]
  Plant response rating, Morningglory: 0
[10]; [16]
  Plant response rating, Morningglory: 0

## Cc1nn(-c2ccc(F)cc2)nc1Cn1c(Cl)nc(C(F)(F)F)c1Cl [Compound 20]
[1]; [17]
  Plant response rating, Barnyardgrass: 0
[1]; [11]
  Plant response rating, Barnyardgrass: 0
[1]; [12]
  Plant response rating, Barnyardgrass: 0
[1]; Flood, 31 g ai/ha
  Plant response rating, Barnyardgrass: 0
[2]; [13]
  Foxtail, Giant plant response rating: 0
[2]; [14]
  Foxtail, Giant plant response rating: 10
[2]; [15]
  Plant response rating, Foxtail, Giant: 0
[2]; [16]
  Plant response rating, Foxtail, Giant: 0
Corn (Zea mays); [13]
  Corn plant response rating: 0
Corn (Zea mays); [14]
  Corn plant response rating: 10
Corn (Zea mays); [15]
  Plant response rating, Corn: 0
Corn (Zea mays); [16]
  Plant response rating, Corn: 0
[3]; [17]
  Plant response rating, Sedge, Umbrella: 0
[3]; [11]
  Plant response rating, Sedge, Umbrella: 0
[3]; [12]
  Plant response rating, Sedge, Umbrella: 0
[3]; Flood, 31 g ai/ha
  Plant response rating, Sedge, Umbrella: 0
[4]; [13]
  Velvetleaf plant response rating: 0
[4]; [14]
  Velvetleaf plant response rating: 20
[4]; [15]
  Plant response rating, Velvetleaf: 0
[4]; [16]
  Plant response rating, Velvetleaf: 0
[5]; [13]
  Barnyardgrass plant response rating: 0
[5]; [14]
  Barnyardgrass plant response rating: 0
[5]; [15]
  Plant response rating, Barnyardgrass: 0
[5]; [16]
  Plant response rating, Barnyardgrass: 0
Rice (Oryza sativa); [17]
  Plant response rating, Rice: 0
Rice (Oryza sativa); [11]
  Plant response rating, Rice: 0
Rice (Oryza sativa); [12]
  Plant response rating, Rice: 0
Rice (Oryza sativa); Flood, 31 g ai/ha
  Plant response rating, Rice: 0
[6]; [13]
  Pigweed plant response rating: 0
[6]; [14]
  Pigweed plant response rating: 30
[6]; [15]
  Plant response rating, Pigweed: 0
[6]; [16]
  Plant response rating, Pigweed: 0
[7]; [13]
  Crabgrass, Large plant response rating: 0
[7]; [14]
  Crabgrass, Large plant response rating: 10
[7]; [15]
  Plant response rating, Crabgrass, Large: 0
[7]; [16]
  Plant response rating, Crabgrass, Large: 0
[8]; [17]
  Plant response rating, Ducksalad: 0
[8]; [11]
  Plant response rating, Ducksalad: 0
[8]; [12]
  Plant response rating, Ducksalad: 0
[8]; Flood, 31 g ai/ha
  Plant response rating, Ducksalad: 0
[9]; [13]
  Wheat plant response rating: 0
[9]; [14]
  Wheat plant response rating: 0
[9]; [15]
  Plant response rating, Wheat: 0
[9]; [16]
  Plant response rating, Wheat: 0
[10]; [13]
  Morningglory plant response rating: 0
[10]; [14]
  Morningglory plant response rating: 10
[10]; [15]
  Plant response rating, Morningglory: 0
[10]; [16]
  Plant response rating, Morningglory: 0
